Structures can show the parent of a compound that is named as a salt.
What was measured:
Type in all cases: cell-based
[1] = system: HT 29 human colonic tumour cell line; test: Growth inhibition test (MTT) for cytotoxic properties, HT 29; settings: HT 29 cells
Method: (§1) 1. Growth Inhibition Test for the Determination of Cytotoxic Properties
(§2) They were then trypsinized and taken up in RPMI plus 10% FCS to give a cell count of 50,000 cells/ml. 100 μl of cell suspension/well were added to a 96 microwell plate and incubated for 1 day at 37° C. in a CO2 incubator. A further 100 μl of RPMI medium and 1 μl of DMSO were then added with the test substances. The growth was checked after day 3 and day 6. To do this, 40 μl of MTT solution (3-(4,5-dimethylthiazol-2-yl)-2,5-diphenyl-tetrazolin bromide) were added to each microwell at a starting concentration of 5 mg/ml of H2O. Incubation was carried out at 37° C. for 5 hours in the CO2 incubator. The medium was then aspirated and 100 μl of i-propanol/well were added. After shaking for 30 min with 100 μl of H2O, the extinction was measured at 540 nm using a Titertek Multiskan MCC/340 (flow).
(§3) The cytotoxic action is indicated in Table 1 as an IC50 value in each case for the SW 480 and HT 29 and B16F10 cell lines: […]

[2] = system: B16F10 mouse melanoma cell line; test: Growth inhibition test (MTT) for cytotoxic properties, B16F10; settings: B16F10 cells
Method: as §1, §2, §3

[3] = system: SW 480 human colonic tumour cell line; test: Growth inhibition test (MTT) for cytotoxic properties, SW 480; settings: SW 480 cells
Method: as §1, §2, §3

Structure (SMILES) | IC50 [1] [nM] | IC50 [2] [nM] | IC50 [3] [nM]
CC(NC(=S)Nc1ccc(O)cc1)C(=O)NC1C=CCC2CN(c3c(F)cc4c(=O)c(C(=O)O)cn(C5CC5)c4c3Cl)CC21 (racemic) [2.1), N-[N-(4-Hydroxy-phenylamino-thiocarbonyl)-alanyl]-quinolone-a] | 9000 | 9000 | 20000
CC(NC(=S)Nc1ccc(O)cc1)C(=O)NC1C=CCC2CN(c3c(F)cc4c(=O)c(C(=O)O)cn(C5CC5)c4c3Cl)CC21 (racemic) [2.2), N-[N-(4-Hydroxy-phenylamino-thiocarbonyl)-D-alanyl]-quinolone-a] | 6000 | 4000 | 15000
NCCC(NC(=S)Nc1ccc(O)cc1)C(=O)NC1C=CCC2CN(c3c(F)cc4c(=O)c(C(=O)O)cn(C5CC5)c4c3Cl)CC21 (racemic) [2.3), N-[N^α-(4-Hydroxy-phenylamino-thiocarbonyl)-α,γ-diaminobutyryl]-quinolone-a, hydrochloride] | 700 | 200 | 900
O=C(O)c1cn(C2CC2)c2c(Cl)c(N3CC4CC=CC(NC(=O)C(CCCCNC(=S)Nc5ccc(O)cc5)NC(=S)Nc5ccc(O)cc5)C4C3)c(F)cc2c1=O (racemic) [2.5), N-[N^α,N^ε-bis-(4-Hydroxy-phenylamino-thiocarbonyl)-D-lysyl]-quinolone-a] | > 200000 | 200000 | 200000
NCCCC(NC(=S)Nc1ccc(O)cc1)C(=O)NC1C=CCC2CN(c3c(F)cc4c(=O)c(C(=O)O)cn(C5CC5)c4c3Cl)CC21 (racemic) [2.6), N-[N^α-(4-Hydroxy-phenylamino-thiocarbonyl)-ornithyl]-quinolone-a, hydrochloride] | 300 | 60 | 200
NCCCCC(NC(=S)Nc1ccc(N=C=S)cc1)C(=O)NC1C=CCC2CN(c3c(F)cc4c(=O)c(C(=O)O)cn(C5CC5)c4c3Cl)CC21 (racemic) [2.8), N-[N^α-(4-Isothiocyanato-phenylamino-thiocarbonyl)-lysyl]-quinolone-a] | 100 | 100 | 200
NCCCCC(NC(=S)Nc1ccc(C(=O)O)cc1)C(=O)NC1C=CCC2CN(c3c(F)cc4c(=O)c(C(=O)O)cn(C5CC5)c4c3Cl)CC21 (racemic) [2.9), N-[N^α-(4-Carboxy-phenylamino-thiocarbonyl)-lysyl]-quinolone-a] | 2000 | 1000 | 2000
CN(C(=S)NC(CCCCN)C(=O)NC1C=CCC2CN(c3c(F)cc4c(=O)c(C(=O)O)cn(C5CC5)c4c3Cl)CC21)c1ccccc1 (racemic) [2.10), N-[N^α-(Phenyl-methyl-amino-thiocarbonyl)-lysyl]-quinolone-a] | 2000 | 400 | 2000
CC(NC(=O)C(CCCCN)NC(=S)Nc1ccc(O)cc1)C(=O)NC1C=CCC2CN(c3c(F)cc4c(=O)c(C(=O)O)cn(C5CC5)c4c3Cl)CC21 (racemic) [2.11), N-[N^α-(4-Hydroxy-phenylamino-thiocarbonyl)-lysyl-D-alanyl]-quinolone-a] | 150000 | 30000 | 60000
NCCCC[C@H](NC(=S)Nc1ccc(O)cc1)C(=O)Nc1ccc2c(c1)CN1C(=O)c3ccccc3C1=N2 [1.2), N-[N^α-(4-Hydroxy-phenylamino-thiocarbonyl)-lysyl]-batracylin] | 40000 | – | 25000
NC(CCCCNC(=S)Nc1ccc(O)cc1)C(=O)Nc1ccc2c(c1)CN1C(=O)c3ccccc3C1=N2 (centres unmarked) [1.3), N-[N^ε-(4-Hydroxy-phenylamino-thiocarbonyl)-lysyl]-batracylin] | 70000 | – | 45000
C[C@@H](NC(=O)[C@H](CCCCN)NC(=S)Nc1ccc(O)cc1)C(=O)Nc1ccc2nc3n(c(=O)c2c1)Cc1ccccc1-3 [1.4), N-[N^α-(4-Hydroxy-phenylamino-thiocarbonyl)-lysyl-D-alanyl]-batracylin] | 40000 | 30000 | 40000
CC(NC(=O)C(CO)NC(=S)Nc1ccc(O)cc1)C(=O)Nc1ccc2c(c1)CN1C(=O)c3ccccc3C1=N2 [1.5), N-[N-(4-Hydroxy-phenylamino-thiocarbonyl)-seryl-D-alanyl]-batracylin] | 400000 | – | 250000
CC(NC(=O)C(CCC(=O)O)NC(=S)Nc1ccc(O)cc1)C(=O)Nc1ccc2nc3n(c(=O)c2c1)Cc1ccccc1-3 [1.6), N-[N-(4-Hydroxy-phenylamino-thiocarbonyl)-glutamyl-D-alanyl]-batracylin] | 800000 | – | 550000
COc1cccc2c1C(=O)c1c(O)c3c(c(O)c1C2=O)C[C@@](O)(C(=O)CO)C[C@@H]3O[C@H]1C[C@H](NC(=O)C(C)NC(=O)C(CCCCN)NC(=S)Nc2ccc(O)cc2)[C@H](O)[C@H](C)O1 (stereo partly drawn) [3), N-[N^α-(4-Hydroxy-phenylamino-thiocarbonyl)-lysyl-alanyl]-doxorubicin] | 2000 | 1000 | 3000
CC[C@@]1(OC(=O)C(C)NC(=O)C(CCCCN)NC(=S)Nc2ccc(O)cc2)C(=O)OCc2c1cc1n(c2=O)Cc2cc3ccccc3nc2-1 (stereo partly drawn) [4.1), 20-O-[N^α-(4-Hydroxy-phenylamino-thiocarbonyl)-lysyl-alanyl]-camptothecin] | 20 | 100 | 10
CCC1(OC(=O)C(CC(C)C)NC(=O)C(CCCCN)NC(=S)Nc2ccc(O)cc2)C(=O)OCc2c1cc1n(c2=O)Cc2cc3ccccc3nc2-1 (stereo not drawn) [4.2), 20-O-[N^α-(4-Hydroxy-phenylamino-thiocarbonyl)-lysyl-leucyl]-camptothecin, hydrochloride] | 60 | 300 | 70
CCC1(OC(=O)C(Cc2ccccc2)NC(=O)C(CCCCN)NC(=S)Nc2ccc(O)cc2)C(=O)OCc2c1cc1n(c2=O)Cc2cc3ccccc3nc2-1 (stereo not drawn) [4.3), 20-O-[N^α-(4-Hydroxy-phenylamino-thiocarbonyl)-lysyl-phenyl-alanyl]-camptothecin] | 20 | 100 | 20
CC[C@@]1(OC(=O)C(NC(=O)C(CCCCN)NC(=S)Nc2ccc(C(=O)O)cc2)C(C)C)C(=O)OCc2c1cc1n(c2=O)Cc2cc3ccccc3nc2-1 (stereo partly drawn) [4.5), 20-O-[N^α-(4-Carboxy-phenylamino-thiocarbonyl)-lysyl-valyl]-camptothecin, hydrochloride] | 200 | 800 | 300
CC[C@@]1(OC(=O)C(NC(=O)C(CCCCN)NC(=S)Nc2ccc(Cl)cc2)C(C)C)C(=O)OCc2c1cc1n(c2=O)Cc2cc3ccccc3nc2-1 (stereo partly drawn) [4.6), 20-O-[N^α-(4-Chloro-phenylamino-thiocarbonyl)-lysyl-valyl]-camptothecin, hydrochloride] | 150 | 500 | 200
CC[C@@]1(OC(=O)[C@@H](NC(=O)[C@H](CCCCN)NC(=S)Nc2ccccc2)C(C)C)C(=O)OCc2c1cc1n(c2=O)Cc2cc3ccccc3nc2-1 [4.7), 20-O-[N^α-(Phenylamino-thiocarbonyl)-lysyl-valyl]-camptothecin, hydrochloride] | 60 | 300 | 100
CCC1(OC(=O)C(NC(=O)C(CCCCN)NC(=S)N(C)c2ccccc2)C(C)C)C(=O)OCc2c1cc1n(c2=O)Cc2cc3ccccc3nc2-1 (stereo not drawn) [4.8), 20-O-[N^α-(Phenyl-methyl-amino-thiocarbonyl)-lysyl-valyl]-camptothecin, hydrochloride] | 150 | 800 | 300
